# Experimental data published in patent publication US10370373B2, “Antitumor derivatives for differentiation therapy” (THE CLEVELAND CLINIC FOUNDATION, priority 2016, dated 2019).
# How the values were obtained:
# Format in all cases: cell-based
# THP1 AML cells [1] = test: cell number / growth of THP1 AML cells; conditions: derivatives at 1 mM vs ED2 at 10 μM
# Excerpt: (§1) E) Elevation of differentiation markers CD11b and CD14. […] G) Upregulation of p27 (CDKN1B) (ED3 lysates were unavailable).
# THP-1 cells = test: Annexin-PI flow cytometry for apoptosis; conditions: 5 days after treatment
# Description: (§2) (A) CD11b flow cytometry was performed on THP-1 cells 5 days after the indicated treatments. (B) Annexin-PI flow cytometry of the same cells to determine the percent of cells that were undergoing apoptosis after treatments with the different compounds. Camptothecin is a positive apoptosis inducer.
# THP1 AML cells [2] = test: CD11b / CD14 differentiation marker flow cytometry; conditions: THP-1 cells, 5 days after treatment
# Description: as §1, §2
# [3] = cell viability (zolpidem)
Compound,growth inhibitory activity against THP-1 cells versus ED2 (THP1 AML cells [1]),activation of apoptosis pathway (Annexin-PI) (THP-1 cells),differentiation induction via CD11b flow cytometry versus decitabine and ED2 (THP1 AML cells [2]),cell viability [3]
O=C(O)CCCC[C@@H]1SC[C@@H]2NC(=O)N[C@@H]21 [biotin],more potent growth inhibitory activity,do not activate the apoptosis pathway,better differentiation inducers than decitabine (DAC) and ED2,
"CCCCSc1ccc2nc(-c3ccc(OCCCN)cc3)cn2c1 [NH2, 3-(4-(6-(butylthio)imidazo[1,2-a]pyridin-2-yl)phenoxy)propan-1-amine]",more potent growth inhibitory activity,do not activate the apoptosis pathway,better differentiation inducers than decitabine (DAC) and ED2,
Cc1ccc(-c2nc3ccc(C)cn3c2CC(=O)N(C)C)cc1 [zolpidem],,,,does not affect cell viability
